In brackets after ≈: the same amount, converted by molar mass.
Tests used:
[1] = Aqueous solubility, kinetic shake flask method; assay type: physicochemical; conditions: aqueous buffer, kinetic from dmso stock, pH=7.4 in 50 mM phosphate buffer
[2] = PK study of dose proportionality in rat after oral crystalline Form A; assay type: in vivo, female Sprague Dawley rats; conditions: oral 10, 30, 100 or 300 mg/kg, suspension in 1% Tween, 40% PEG400, 59% of 0.5% HPMC
Description: A summary of this study is illustrated in FIG. 5.

[3] = tested on: HL-60, human proleukemia cells; experiment: Cell-MTS cellular proliferation assay, HL-60; assay type: cell-based; conditions: 168 hr incubation
Method: (§1) A colorimetric cellular proliferation assay (Cell-MTS assay) was performed to assess the ability of the heterocyclic derivative BRD4 inhibitors disclosed herein to effect the proliferation of established cancer cell lines.
(§2) Assay Principle: The Cell-MTS assay is a 7-day plate-based colorimetric assay that quantifies the amount of newly generated NADH in the presence or absence of test compound. The NADH level is used for the quantification of cancer cell proliferation.
(§3) Assay Method: Established cancer cell lines with a variety of driving mutations were obtained from American Type Culture Collection (ATCC) and routinely passaged according to ATCC protocols. For routine assay, these cells were seeded at densities that enabled ˜90% confluence after 7 days of culture. Raji, human Burkitts lymphoma cells, (cMYC) were seeded at 15,000 cells per 96-well. HL-60, human proleukemia cells, (NRAS, p16, p53, c-Myc amplified) were seeded at 5,000 cells per 96-well. NCI-H460, human non-small cell lung cancer cells, (KRAS, PIK3CA, STLK11, p16) were seeded at 3,000 cells per 96-well. Plated cells were incubated for 24 hr, and thereafter cells received an 11-point dilution of Compound 1 with final concentration ranges from 100 μM to 2.0 nM. […] IC50 values were calculated using the IDBS XLfit software package and include background subtracted OD490 values and normalization to DMSO controls. […]

[4] = PK study of plasma exposure in mouse 6 hours after oral SDD preparations; assay type: in vivo, female CD-1 mice; conditions: female, CD-1, mouse
Method: Spray-dried dispersions (SDD) were prepared by mixing a solution of Compound 1 in dichloromethane with either polyvinylpyrrolidone (PVP K12 PF) or hydroxypropyl methylcellulose (Methocel E5 LV) in ratios of Compound 1:polymer of either 1:1 or 1:3, resulting in four unique combinations, followed by spray-drying each preparation using a lab scale Buchi spray dryer (Buchi B290 parameters: inlet T° 80° C.; outlet T° 57° C.; aspirator 100%; nozzle air 30 mm; pump speed 25%; setup: open loop).
In order to determine the plasma exposure levels of the four SDDs prepared as described above, each of preparation was administered orally to female CD-1 mice as a suspension in 0.5% MC. FIG. 6 illustrates the results of this experiment.

BRD4(BD1) = biological target: T1, BRD4(BD1) (Homo sapiens, UniProt O60885); experiment: In vitro enzyme inhibition assay (AlphaScreen, BRD4 / H4-tetraacetyl peptide); assay type: binding; conditions: BRD4(BD1) 2 nM, peptide 15 nM
T1 construct: In a 384-well ProxiPlate BRD4(BD1) (2 nM final) was combined with peptide; made in house
Method: His-tagged BRD4 was cloned, expressed, and purified to homogeneity. […] BRD4 binding and inhibition was assessed by monitoring the interaction of biotinylated H4-tetraacetyl peptide (AnaSpec, H4K5/8/12/16(Ac), biotin-labeled) with the target using the AlphaScreen technology ([…]). […] After 20 min incubation at RT, Alpha streptavidin donor beads and Nickel Chelate acceptor beads were added to a final concentration of 5 μg/mL.

[5] = PK study of dose proportionality in rat after oral SDD; assay type: in vivo, female Sprague Dawley rats; conditions: 25% Compound 1:HPMC SDD, oral 0.5% MC suspension, 10 mg/kg to 300 mg/kg
Method: (§4) The spray-dried dispersion was prepared by mixing a solution of Compound 1 in dichloromethane with hydroxypropyl methylcellulose (Methocel E5 LV) (HPMC) in a 1:3 Compound 1:polymer ratio, stirring the mixture overnight, and then spray-drying using a lab scale Buchi spray dryer.

[6] = tested on: NCI-H460, human non-small cell lung cancer cells; experiment: Cell-MTS cellular proliferation assay, NCI-H460; assay type: cell-based; conditions: 168 hr incubation
Method: as §1, §2, §3

[7] = PK study of dose proportionality in dog after oral SDD; assay type: in vivo, male beagle dogs; conditions: 25% Compound 1:HPMC SDD, oral 0.5% MC suspension, 1 mg/kg-10 mg/kg
Method: as §4

[8] = PK study of plasma exposure in rat after oral HPMCAS SDD preparations; assay type: in vivo, female Sprague Dawley rats; conditions: female, Sprague Dawley, 10 mg/kg
Method: Spray-dried dispersions (SDD) were prepared by mixing a solution of Compound 1 in (90:10) acetone:water with hydroxypropylmethylcellulose acetate succinate M or H (HPMCAS-M or HPMCAS-H) in ratios of Compound 1:polymer of either 1:9 or 1:3, followed by spray-drying each preparation using a custom bench scale Lab Spray Dryer (BLD-35; process parameters: inlet T° 93-109° C.; outlet T° 42-43° C.; atomizing pressure 110 psi; feed rate 29 g/min; […] 450 g/min).
In order to determine the plasma exposure levels of the three SDDs prepared as described above, each of them was administered orally at 10 mg/kg (based on Compound 1) to female Sprague Dawley rats as a suspension in 0.5% MC for the 10% HPMCAS-M SDD or as a suspension in 0.5% Methocel A4M/0.5% HPMCAS-HF/20 mM Tris, pH 7.4 for the 25% HPMCAS-M and the 25% HPMCAS-H SDDs. FIG. 9 illustrates the results of this experiment.

[9] = tested on: Raji, human Burkitts lymphoma cells; experiment: Cell-MTS cellular proliferation assay, Raji; assay type: cell-based; conditions: 168 hr incubation
Method: as §1, §2, §3

Row | SMILES | solubility [1] | exposure levels (AUC 0-24 hr) versus dose [2] | IC50 [3] | AUC(0-t) ([4]; SDD with HPMC polymer, Compound 1:polymer 1:1, suspension in 0.5% MC) | AUC(0-t) ([4]; SDD with HPMC polymer, Compound 1:polymer 1:3, suspension in 0.5% MC) | AUC(0-t) ([4]; SDD with PVP polymer, Compound 1:polymer 1:1, suspension in 0.5% MC) | AUC(0-t) ([4]; SDD with PVP polymer, Compound 1:polymer 1:3, suspension in 0.5% MC) | IC50 (BRD4(BD1)) | dose proportionality (AUC 0-24 hr) [5] | IC50 [6] | dose proportionality (AUC 0-24 hr) [7] | AUC(0-t) ([8]; SDD with HPMCAS-M polymer, Compound 1:polymer 1:9, suspension in 0.5% MC, read-out: mean AUC 0-24 hr) | AUC(0-t) ([8]; pH 7.4, SDD with HPMCAS-H polymer, Compound 1:polymer 1:3, suspension in 0.5% Methocel A4M/0.5% HPMCAS-HF/20 mM Tris, pH 7.4, read-out: mean AUC 0-24 hr) | AUC(0-t) ([8]; pH 7.4, SDD with HPMCAS-M polymer, Compound 1:polymer 1:3, suspension in 0.5% Methocel A4M/0.5% HPMCAS-HF/20 mM Tris, pH 7.4, read-out: mean AUC 0-24 hr) | IC50 [9]
1 | Cn1cc(-c2cc(S(C)(=O)=O)ccc2OCC2CC2)c2ccccc2c1=O [Compound 1 Form A, 4-[2-(cyclopropylmethoxy)-5-methylsulfonylphenyl]-2-methylisoquinolin-1-one] | 2.6 to 3.7 µg/mL (≈ 6.78 to 9.65 µM) | non-linear exposure levels |  |  |  |  |  |  |  |  |  |  |  |  | 
2 | Cn1cc(-c2cc(S(C)(=O)=O)ccc2OCC2CC2)c2ccccc2c1=O [Compound 1, 4-[2-(cyclopropylmethoxy)-5-methylsulfonylphenyl]-2-methylisoquinolin-1-one] |  |  | ≤ 500 nM | 10500 ng·h/mL | 24400 ng·h/mL | 7190 ng·h/mL | 8870 ng·h/mL | < 500 nM | approximate dose proportionality | > 5000 nM | Approximate dose proportionality | 28100 ng·h/mL | 27500 ng·h/mL | 24600 ng·h/mL | ≤ 500 nM

— patent publication US11679106B2, “Bromodomain inhibitor” (CELGENE QUANTICEL RESEARCH, INC., priority 2015, dated 2023)
